From patent US20240383908A1, “SYNTHESIS AND APPLICATION OF PHOSPHATASE DEGRADER” (HINOVA PHARMACEUTICALS INC., priority 2021, published 2024)

These compounds were tested against T1, SHP2 protein (Homo sapiens, UniProt Q06124) (assay: Degradation activity on SHP2 protein in MIA Paca-2 cells (Western blot, DC50)). Details: read-out: Degradation activity for differenct cell lines MIA Paca-2 (DC50).
T1 sequence (Q06124 1-593): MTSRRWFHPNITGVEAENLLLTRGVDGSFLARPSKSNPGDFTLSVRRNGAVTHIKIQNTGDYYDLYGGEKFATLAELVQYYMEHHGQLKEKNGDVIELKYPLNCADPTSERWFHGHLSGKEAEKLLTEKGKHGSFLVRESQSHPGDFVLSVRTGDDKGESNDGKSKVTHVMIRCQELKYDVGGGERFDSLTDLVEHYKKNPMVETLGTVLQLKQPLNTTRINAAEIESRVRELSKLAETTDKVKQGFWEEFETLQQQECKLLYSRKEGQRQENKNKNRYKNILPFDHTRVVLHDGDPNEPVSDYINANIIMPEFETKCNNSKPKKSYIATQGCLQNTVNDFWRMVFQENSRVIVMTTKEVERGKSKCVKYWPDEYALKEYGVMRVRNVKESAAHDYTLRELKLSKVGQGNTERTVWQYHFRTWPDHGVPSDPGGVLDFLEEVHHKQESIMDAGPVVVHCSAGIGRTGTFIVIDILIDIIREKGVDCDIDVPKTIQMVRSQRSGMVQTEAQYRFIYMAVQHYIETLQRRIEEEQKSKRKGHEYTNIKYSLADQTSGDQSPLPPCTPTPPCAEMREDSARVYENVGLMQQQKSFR
Assay type: cell-based
Design: endogenous in cells; host or cells: MIA Paca-2 cells
Procedure: (1) MV-411 cells were cultured in the cell culture medium, and then well-growing cells were selected and inoculated in a 12-well plate, with 1 mL/well and 1×10^6 cells/well. The plate was incubated overnight in a 5% CO2 cell incubator at 37° C.
(2) 10 mM storage solution of each drug was prepared using dimethylsulfoxide (DMSO). The stock solution was diluted gradually with DMSO before use, and then 1 μL of the compound solution was added to the cell culture well (to ensure that the DMSO concentration in the culture system was […]), so that the final drug concentration is 100 nM, 10 nM, 3 nM, 1 nM, 0.3 nM, and 0.1 nM. Two wells were set for each concentration. The plate was gently shaken and mixed. Additionally, negative control wells (containing an equal amount of DMSO) and positive control wells were included.
(3) After 24 hours of cultivation, the cells were lysed using RIPA cell lysate, and the proteins were extracted. The protein concentration was measured using a BCA assay kit. 5× concentrated protein buffer was loaded, heated at 100° C. for 5 min, and then the sample was stored at −20° C.
(4) For each well, 30 μg of protein was loaded to polyacrylamide gel for electrophoresis.
(5) The protein was transferred from polyacrylamide gel to PVDF membrane, and sealed at room temperature with 5% skimmed milk for 1 h, which was then incubated with the primary antibodies (Anti-SHP2 rabbit mAb and Anti-GAPDH rabbit mAb) at 4° C. overnight. The membrane was washed three times with TBST solution, 10 minutes for each time. After that, the membrane was incubated with the secondary antibodies (horseradish peroxidase labeled goat anti-rabbit IgG) at room temperature for 2 h, and then washed three times with TBST solution, 10 minutes for each time, followed by exposure.
(6) The images were analyzed with Image J grayscale, and the degradation ratio of protein bands in the test group was calculated, based on the negative control group (DMSO) (100%).
(7) Using the Dose-response-inhibition equation in the data processing software GraphPad Prism 8, the DC50 value was obtained (which represents the drug concentration corresponding to 50% degradation of the target protein).
Using similar methods and different cell lines, the degradation activity of the compound according to the present invention on SHP2 protein of different cell lines was tested under suitable culture conditions.

Row | Structure (SMILES) | DC50
1 | CC1(N)CCN(c2cnc(Sc3cccc(NC(=O)c4ccc(N5CCC(N6CC=C(c7ccc(C(=O)NCc8ccc9c(c8)CN(C8CCC(=O)NC8=O)C9=O)nc7)CC6)CC5)cc4)c3)cn2)CC1 (centres unmarked) [Compound 312] | < 100 nM
2 | CC1(N)CCN(c2cnc(Sc3cccc(NC(=O)c4ccc(N5CCC(N6CC=C(c7ccc(C(=O)Nc8ccc9c(c8)CN(C8CCC(=O)NC8=O)C9=O)nc7)CC6)CC5)cc4)c3)cn2)CC1 (centres unmarked) [Compound 313] | < 100 nM
3 | CC1(N)CCN(c2cnc(Sc3cccc(NC(=O)c4ccc(N5CCC(N6CC=C(c7ccc(C(=O)NCc8ccc9c(c8)CN(C8CCC(=O)NC8=O)C9=O)nc7)CC6)CC5)nc4)c3)cn2)CC1 (centres unmarked) [Compound 324] | < 100 nM
4 | CC1(N)CCN(c2cnc(Sc3cccc(NC(=O)c4ccc(N5CCC(N6CC=C(c7ccc(C(=O)Nc8ccc9c(c8)CN(C8CCC(=O)NC8=O)C9=O)nc7)CC6)CC5)nc4)c3)cn2)CC1 (centres unmarked) [Compound 325] | < 100 nM
5 | CC1(N)CCN(c2cnc(Sc3cccc(NC(=O)c4ccc(N5CCC(N6CC=C(c7ccc(C(=O)NCc8ccc9c(c8)CN(C8CCC(=O)NC8=O)C9=O)nn7)CC6)CC5)nc4)c3)cn2)CC1 (centres unmarked) [Compound 326] | < 100 nM
6 | CC1(N)CCN(c2cnc(Sc3cccc(NC(=O)c4ccc(N5CCC(N6CC=C(c7ccc(C(=O)Nc8ccc9c(c8)CN(C8CCC(=O)NC8=O)C9=O)nn7)CC6)CC5)nc4)c3)cn2)CC1 (centres unmarked) [Compound 327] | < 100 nM
7 | C[C@@H]1OCC2(CCN(c3cnc(Sc4cccc(NC(=O)c5ccc(N6CCC(N7CC=C(c8ccc(C(=O)NCc9ccc%10c(c9)CN(C9CCC(=O)NC9=O)C%10=O)nn8)CC7)CC6)cc5)c4)cn3)CC2)[C@@H]1N (some centres unmarked) [Compound 328] | < 100 nM
8 | CC1(N)CCN(c2cnc(Sc3cccc(NC(=O)c4ccc(N5CCC(N6CC=C(c7ccc(C(=O)NCc8ccc9c(c8)CN(C8CCC(=O)NC8=O)C9=O)nn7)CC6)CC5)c(F)c4)c3)cn2)CC1 (centres unmarked) [Compound 329] | < 100 nM
9 | CC1(N)CCN(c2cnc(Sc3cccc(NC(=O)c4ccc(N5CCC(N6CC=C(c7ccc(C(=O)Nc8ccc9c(c8)CN(C8CCC(=O)NC8=O)C9=O)nn7)CC6)CC5)cc4)c3)cn2)CC1 (centres unmarked) [Compound 330] | < 100 nM
10 | CC1(N)CCN(c2cnc(Sc3cccc(NC(=O)C(C)(C)c4ccc(N5CCN(c6ccc(C(=O)NCc7ccc8c(c7)CN(C7CCC(=O)NC7=O)C8=O)nc6)CC5)cc4)c3)cn2)CC1 (centres unmarked) [Compound 331] | > 1000 nM
11 | CC1(N)CCN(c2cnc(Sc3cccc(NC(=O)C4(c5ccc(N6CCN(c7ccc(C(=O)NCc8ccc9c(c8)CN(C8CCC(=O)NC8=O)C9=O)nc7)CC6)cc5)CC4)c3)cn2)CC1 (centres unmarked) [Compound 332] | > 1000 nM
12 | CC1(N)CCN(c2cnc(Sc3cccc(N4CCC(C(=O)N5CCN(c6ccc7c(c6)CN(C6CCC(=O)NC6=O)C7=O)CC5)CC4)c3)cn2)CC1 (centres unmarked) [Compound 333] | > 1000 nM
13 | CC1(N)CCN(c2cnc(Sc3cccc(NC(=O)c4ccc(N5CCC(C(=O)N6CCN(c7ccc8c(c7)CN(C7CCC(=O)NC7=O)C8=O)CC6)CC5)c(F)c4)c3)cn2)CC1 (centres unmarked) [Compound 335] | > 1000 nM
14 | NC1(CO)CCN(c2cnc(Sc3cccc(NC(=O)c4ccc(N5CCC(N6CC=C(c7ccc(C(=O)NCc8ccc9c(c8)CN(C8CCC(=O)NC8=O)C9=O)nc7)CC6)CC5)cc4)c3)cn2)CC1 (centres unmarked) [Compound 336] | < 100 nM
15 | NC1CCN(c2cnc(Sc3cccc(NC(=O)c4ccc(N5CCC(N6CC=C(c7ccc(C(=O)NCc8ccc9c(c8)CN(C8CCC(=O)NC8=O)C9=O)nc7)CC6)CC5)cc4)c3)cn2)CC1F (centres unmarked) [Compound 337] | < 100 nM
16 | COc1nc(C2=CCN(C3CCN(c4ccc(C(=O)Nc5cccc(Sc6cnc(N7CCC(C)(N)CC7)cn6)c5)cc4)CC3)CC2)ccc1C(=O)NCc1ccc2c(c1)CN(C1CCC(=O)NC1=O)C2=O (centres unmarked) [Compound 338] | < 100 nM

Row | Structure (SMILES) | DC50
17 | CC1(N)CCN(c2cnc(Sc3cccc(NC(=O)C4CCC(N5CCC(N6CC=C(c7ccc(C(=O)NCc8ccc9c(c8)CN(C8CCC(=O)NC8=O)C9=O)nn7)CC6)CC5)CC4)c3)cn2)CC1 (centres unmarked) [Compound 339] | < 100 nM
18 | CC1(N)CCN(c2cnc(Sc3cccc(NC(=O)c4cnc(N5CCC(N6CC=C(c7ccc(C(=O)NCc8ccc9c(c8)CN(C8CCC(=O)NC8=O)C9=O)nc7)CC6)CC5)o4)c3)cn2)CC1 (centres unmarked) [Compound 340] | > 1000 nM
19 | CC1(N)CCN(c2cnc(Sc3cccc(N4CCC(CN5CCN(c6ccc7c(c6)CN(C6CCC(=O)NC6=O)C7=O)CC5)CC4)c3)cn2)CC1 (centres unmarked) [Compound 341] | > 1000 nM
20 | CC1(N)CCN(c2cnc(Sc3cccc(NC(=O)c4csc(N5CCC(N6CC=C(c7ccc(C(=O)NCc8ccc9c(c8)CN(C8CCC(=O)NC8=O)C9=O)nc7)CC6)CC5)n4)c3)cn2)CC1 (centres unmarked) [Compound 358] | > 1000 nM
21 | CC1(N)CCN(c2cnc(Sc3cccc(NC(=O)c4ccc(N5CCC(N6CC=C(c7ncc(C(=O)NCc8ccc9c(c8)CN(C8CCC(=O)NC8=O)C9=O)cc7C(F)(F)F)CC6)CC5)cc4)c3)cn2)CC1 (centres unmarked) [Compound 359] | < 100 nM
22 | CC1(N)CCN(c2cnc(Sc3cccc(NC(=O)c4ccc(C5=CCC(N6CC=C(c7ccc(C(=O)NCc8ccc9c(c8)CN(C8CCC(=O)NC8=O)C9=O)nn7)CC6)CC5)cc4)c3)cn2)CC1 (centres unmarked) [Compound 368] | < 100 nM
23 | CC1(N)CCN(c2cnc(Sc3cccc(NC(=O)c4ccc(N5CCC(N6CCC(c7ccc(C(=O)NCc8ccc9c(c8)CN(C8CCC(=O)NC8=O)C9=O)nc7)CC6)CC5)cc4)c3)cn2)CC1 (centres unmarked) [Compound 372] | < 100 nM
24 | NC1CCN(c2cnc(Sc3cccc(NC(=O)c4ccc(N5CCC(N6CC=C(c7ccc(C(=O)NCc8ccc9c(c8)CN(C8CCC(=O)NC8=O)C9=O)nn7)CC6)CC5)cc4)c3)cn2)CC1F (centres unmarked) [Compound 376] | > 1000 nM
25 | CC1(N)CCN(c2cnc(Sc3cccc(NC(=O)c4ccc(N5CCC(N6CCN(c7ccc(C(=O)NCc8ccc9c(c8)CN(C8CCC(=O)NC8=O)C9=O)nn7)CC6)CC5)cc4)c3)cn2)CC1 (centres unmarked) [Compound 389] | < 100 nM
26 | CC1(N)CCN(c2cnc(Sc3cccc(NC(=O)c4ccc(N5CCC(N6CCN(c7ccc(C(=O)NCc8ccc9c(c8)CN(C8CCC(=O)NC8=O)C9=O)nc7)CC6)CC5)cc4F)c3)cn2)CC1 (centres unmarked) [Compound 392] | < 100 nM
27 | CC1(N)CCN(c2cnc(Sc3cccc(NC(=O)c4ccc(N5CCC(N6CC=C(c7ccc(C(=O)NCc8ccc9c(c8)CN(C8CCC(=O)NC8=O)C9=O)nn7)CC6)C5)cc4)c3)cn2)CC1 (centres unmarked) [Compound 402] | < 100 nM
28 | CC1(N)CCN(c2cnc(Sc3cccc(NC(=O)c4cc(N5CCC(N6CC=C(c7ccc(C(=O)NCc8ccc9c(c8)CN(C8CCC(=O)NC8=O)C9=O)nn7)CC6)CC5)cs4)c3)cn2)CC1 (centres unmarked) [Compound 404] | > 1000 nM
29 | CC1(N)CCN(c2cnc(-c3cccc(NC(=O)c4ccc(N5CCC(N6CC=C(c7ccc(C(=O)NCc8ccc9c(c8)CN(C8CCC(=O)NC8=O)C9=O)nn7)CC6)CC5)cc4)c3)cn2)CC1 (centres unmarked) [Compound 407] | > 1000 nM
30 | CC1(N)CCN(c2ccc(-c3cccc(NC(=O)c4ccc(N5CCC(N6CC=C(c7ccc(C(=O)NCc8ccc9c(c8)CN(C8CCC(=O)NC8=O)C9=O)nn7)CC6)CC5)cc4)c3)cn2)CC1 (centres unmarked) [Compound 408] | > 1000 nM
31 | C[C@@H]1OCC2(CCN(c3cnc(Sc4cccc(NC(=O)c5ccc(N6CCC(N7CC=C(c8ccc(C(=O)NCc9ccc%10c(c9)CN(C9CCC(=O)NC9=O)C%10=O)nc8)CC7)CC6)cc5)c4)cn3)CC2)[C@@H]1N (some centres unmarked) [Compound 411] | < 100 nM
32 | CC1(N)CCN(c2cnc(Sc3cccc(NC(=O)c4ccc(N5CCC(N6CC=C(c7cnc(C(=O)NCc8ccc9c(c8)CN(C8CCC(=O)NC8=O)C9=O)c(Cl)c7)CC6)CC5)c(F)c4)c3)cn2)CC1 (centres unmarked) [Compound 413] | < 100 nM
